Assay results taken from US12257237B2 (priority 2017, dated 2025).

Tested on: DD013 dedifferentiated liposarcoma
Test: Antitumour activity in DD013 dedifferentiated liposarcoma xenograft model
Type: in vivo, Athymic nude mice
Conditions: for optimal T/C: day 50
Description: Experiments were performed with female Athymic nude mice, 9-10 weeks old obtained from Harlan Laboratories (Udine, Italy). They were maintained under Specific Pathogen Free conditions with constant temperature and humidity, according to the institutional guidelines.
Tumour growth mice was monitored two/three times a week (depending on tumour growth rate, to avoid unnecessary stress to the animals) by Vernier caliper. Mice were sacrificed when tumour reached a mean weight of 2±0.5 gr. The antitumour activity will be expressed as T/C %, where T and C were the mean tumour weight of treated and control groups, respectively. Mice were monitored daily and weighted at least two times a week. Tolerability was evaluated on the basis of body weight loss (BWL) and clinical observation.
Statistical analysis was performed with GraphPad Prism version 6.01 software (GraphPad software, Inc., La Jolla, CA, USA). ANOVA test was performed to evaluate if there were statistically significant differences between treated and control groups.
Briefly, xenografts were obtained by transplanting 3-4 mm tumour fragments s.c. in the flanks of mice. The growing tumour masses were measured with the aid of a Vernier caliper, and the tumour weights (TW, 1 mm^3=1 mg) were calculated by the formula: length×(width) 2/2. When tumour load achieved about 200-400 mg, mice were randomized into the experimental groups.

Cn1c(CCCCCCC(=O)NO)nc2cc(N(CCCl)CCCl)ccc21 [EDO-S101, 7-(5-(bis(2-chloroethyl)amino)-1-methyl-1H-benzo[d]imidazol-2-yl)-N-hydroxyheptanamide]
optimal T/C (40 mg/kg i.v. q7dx3): 27.2%
effect on tumour growth (40 mg/kg q7dx3, first cycle): reduced tumour growth, but without a complete arrest
effect of second cycle on tumour growth (40 mg/kg, second cycle from day 50): promoted tumour growth arrest
optimal T/C (60 mg/kg i.v. q7dx3): 14%
effect on tumour growth (60 mg/kg, first cycle): induced tumour growth arrest
effect of second cycle on tumour growth (60 mg/kg, second cycle from day 72): sustained tumour growth arrest
optimal T/C (80 mg/kg i.v. single dose): 18%
effect on tumour growth (80 mg/kg, first cycle): induced tumour growth arrest
effect of second cycle on tumour growth (80 mg/kg, second cycle from day 58): Tumour growth arrest was also observed
DD0113 tumour weight, Mean (EDO40: EDO-S101 40 mg/kg q7dx3, day 23 from inoculum): 198.6 mg
DD0113 tumour weight, Mean (EDO40: EDO-S101 40 mg/kg q7dx3, day 26 from inoculum): 283.6 mg
DD0113 tumour weight, Mean (EDO40: EDO-S101 40 mg/kg q7dx3, day 29 from inoculum): 319.2 mg
DD0113 tumour weight, Mean (EDO40: EDO-S101 40 mg/kg q7dx3, day 33 from inoculum): 394.4 mg
DD0113 tumour weight, Mean (EDO40: EDO-S101 40 mg/kg q7dx3, day 36 from inoculum): 380.3 mg
DD0113 tumour weight, Mean (EDO40: EDO-S101 40 mg/kg q7dx3, day 40 from inoculum): 433.4 mg
DD0113 tumour weight, Mean (EDO40: EDO-S101 40 mg/kg q7dx3, day 43 from inoculum): 451.3 mg
DD0113 tumour weight, Mean (EDO40: EDO-S101 40 mg/kg q7dx3, day 47 from inoculum): 507.4 mg
DD0113 tumour weight, Mean (EDO40: EDO-S101 40 mg/kg q7dx3, day 50 from inoculum): 570.5 mg
DD0113 tumour weight, Mean (EDO40: EDO-S101 40 mg/kg q7dx3, day 54 from inoculum): 599.5 mg
DD0113 tumour weight, Mean (EDO40: EDO-S101 40 mg/kg q7dx3, day 58 from inoculum): 584.1 mg
DD0113 tumour weight, Mean (EDO40: EDO-S101 40 mg/kg q7dx3, day 62 from inoculum): 677.9 mg
DD0113 tumour weight, Mean (EDO40: EDO-S101 40 mg/kg q7dx3, day 65 from inoculum): 677.8 mg
DD0113 tumour weight, Mean (EDO40: EDO-S101 40 mg/kg q7dx3, day 69 from inoculum): 703.2 mg
DD0113 tumour weight, Mean (EDO40: EDO-S101 40 mg/kg q7dx3, day 72 from inoculum): 669.8 mg
DD0113 tumour weight, Mean (EDO40: EDO-S101 40 mg/kg q7dx3, day 75 from inoculum): 666.1 mg
DD0113 tumour weight, Mean (EDO40: EDO-S101 40 mg/kg q7dx3, day 79 from inoculum): 756.8 mg
DD0113 tumour weight, Mean (EDO40: EDO-S101 40 mg/kg q7dx3, day 83 from inoculum): 683.9 mg
DD0113 tumour weight, Mean (EDO40: EDO-S101 40 mg/kg q7dx3, day 87 from inoculum): 935.9 mg
DD0113 tumour weight, Mean (EDO40: EDO-S101 40 mg/kg q7dx3, day 90 from inoculum): 1022.8 mg
DD0113 tumour weight, Mean (EDO40: EDO-S101 40 mg/kg q7dx3, day 94 from inoculum): 1226.5 mg
DD0113 tumour weight, Mean (EDO40: EDO-S101 40 mg/kg q7dx3, day 98 from inoculum): 1338.0 mg
DD0113 tumour weight, Mean (EDO40: EDO-S101 40 mg/kg q7dx3, day 100 from inoculum): 1553.1 mg
DD0113 tumour weight, Mean (EDO60: EDO-S101 60 mg/kg q7dx3, day 23 from inoculum): 199.2 mg
DD0113 tumour weight, Mean (EDO60: EDO-S101 60 mg/kg q7dx3, day 26 from inoculum): 272.5 mg
DD0113 tumour weight, Mean (EDO60: EDO-S101 60 mg/kg q7dx3, day 29 from inoculum): 310.4 mg
DD0113 tumour weight, Mean (EDO60: EDO-S101 60 mg/kg q7dx3, day 33 from inoculum): 373.1 mg
DD0113 tumour weight, Mean (EDO60: EDO-S101 60 mg/kg q7dx3, day 36 from inoculum): 334.2 mg
DD0113 tumour weight, Mean (EDO60: EDO-S101 60 mg/kg q7dx3, day 40 from inoculum): 371.2 mg
DD0113 tumour weight, Mean (EDO60: EDO-S101 60 mg/kg q7dx3, day 43 from inoculum): 339.5 mg
DD0113 tumour weight, Mean (EDO60: EDO-S101 60 mg/kg q7dx3, day 47 from inoculum): 330.2 mg
DD0113 tumour weight, Mean (EDO60: EDO-S101 60 mg/kg q7dx3, day 50 from inoculum): 310.9 mg
DD0113 tumour weight, Mean (EDO60: EDO-S101 60 mg/kg q7dx3, day 54 from inoculum): 321.1 mg
DD0113 tumour weight, Mean (EDO60: EDO-S101 60 mg/kg q7dx3, day 58 from inoculum): 303.3 mg
DD0113 tumour weight, Mean (EDO60: EDO-S101 60 mg/kg q7dx3, day 62 from inoculum): 298.3 mg
DD0113 tumour weight, Mean (EDO60: EDO-S101 60 mg/kg q7dx3, day 65 from inoculum): 291.6 mg
DD0113 tumour weight, Mean (EDO60: EDO-S101 60 mg/kg q7dx3, day 69 from inoculum): 334.6 mg
DD0113 tumour weight, Mean (EDO60: EDO-S101 60 mg/kg q7dx3, day 72 from inoculum): 423.7 mg
DD0113 tumour weight, Mean (EDO60: EDO-S101 60 mg/kg q7dx3, day 75 from inoculum): 432.9 mg
DD0113 tumour weight, Mean (EDO60: EDO-S101 60 mg/kg q7dx3, day 79 from inoculum): 475.7 mg
DD0113 tumour weight, Mean (EDO60: EDO-S101 60 mg/kg q7dx3, day 83 from inoculum): 376.9 mg
